Ki and inhibition data for six compounds are collected here from ChEMBL document CHEMBL2390893, “Natural product hybrid and its superacid synthesized analogues: dodoneine and its derivatives show selective inhibition of carbonic anhydrase isoforms I, III, XIII and XIV” (Bioorg Med Chem, 2013).

For experiment [1], the target named is T1, Carbonic anhydrase 3 (Homo sapiens, UniProt P07451). Description: Inhibition of human carbonic anhydrase 3 preincubated for 15 mins by stopped flow CO2 hydrase assay.
T1 sequence (P07451 whole entry): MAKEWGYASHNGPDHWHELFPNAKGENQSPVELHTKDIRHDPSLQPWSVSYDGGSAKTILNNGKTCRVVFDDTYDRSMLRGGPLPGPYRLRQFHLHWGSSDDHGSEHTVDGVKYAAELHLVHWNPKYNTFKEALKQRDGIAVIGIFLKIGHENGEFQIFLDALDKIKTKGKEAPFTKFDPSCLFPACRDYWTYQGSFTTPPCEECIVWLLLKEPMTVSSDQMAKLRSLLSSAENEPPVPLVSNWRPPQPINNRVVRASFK
In experiment [2] the target is T2, Carbonic anhydrase 4 (Homo sapiens, UniProt P22748). Description: Inhibition of human carbonic anhydrase 4 at >100 uM preincubated for 15 mins by stopped flow CO2 hydrase assay.
T2 sequence (P22748 whole entry): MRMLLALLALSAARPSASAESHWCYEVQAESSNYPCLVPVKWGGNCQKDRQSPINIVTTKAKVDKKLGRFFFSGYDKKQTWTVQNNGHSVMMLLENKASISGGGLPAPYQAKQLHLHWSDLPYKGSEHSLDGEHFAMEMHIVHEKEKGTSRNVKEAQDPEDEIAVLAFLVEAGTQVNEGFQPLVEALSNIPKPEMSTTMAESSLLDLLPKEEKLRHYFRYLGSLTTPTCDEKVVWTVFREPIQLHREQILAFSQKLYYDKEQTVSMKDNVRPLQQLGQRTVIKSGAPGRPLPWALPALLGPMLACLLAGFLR
For experiment [3], the target named is T3, Carbonic anhydrase 14 (Homo sapiens, UniProt Q9ULX7). Description: Inhibition of human carbonic anhydrase 14 at >100 uM preincubated for 15 mins by stopped flow CO2 hydrase assay.
T3 sequence (Q9ULX7 whole entry): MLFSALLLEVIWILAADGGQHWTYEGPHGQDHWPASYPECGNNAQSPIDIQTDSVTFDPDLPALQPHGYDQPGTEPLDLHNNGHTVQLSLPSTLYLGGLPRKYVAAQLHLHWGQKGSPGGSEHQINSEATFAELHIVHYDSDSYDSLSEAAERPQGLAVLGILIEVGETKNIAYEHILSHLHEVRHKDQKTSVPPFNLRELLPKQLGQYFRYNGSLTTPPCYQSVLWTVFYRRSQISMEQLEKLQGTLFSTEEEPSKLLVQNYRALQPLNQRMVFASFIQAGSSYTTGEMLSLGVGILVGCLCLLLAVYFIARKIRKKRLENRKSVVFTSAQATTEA
The target of experiment [4] is T4, Carbonic anhydrase 9 (Homo sapiens, UniProt Q16790). Description: Inhibition of human carbonic anhydrase 9 at >100 uM preincubated for 15 mins by stopped flow CO2 hydrase assay.
For experiment [5], the target named is T5, Carbonic anhydrase 12 (Homo sapiens, UniProt O43570). As to the kind of experiment: Inhibition of human carbonic anhydrase 12 at >100 uM preincubated for 15 mins by stopped flow CO2 hydrase assay.
T5 sequence (O43570 whole entry): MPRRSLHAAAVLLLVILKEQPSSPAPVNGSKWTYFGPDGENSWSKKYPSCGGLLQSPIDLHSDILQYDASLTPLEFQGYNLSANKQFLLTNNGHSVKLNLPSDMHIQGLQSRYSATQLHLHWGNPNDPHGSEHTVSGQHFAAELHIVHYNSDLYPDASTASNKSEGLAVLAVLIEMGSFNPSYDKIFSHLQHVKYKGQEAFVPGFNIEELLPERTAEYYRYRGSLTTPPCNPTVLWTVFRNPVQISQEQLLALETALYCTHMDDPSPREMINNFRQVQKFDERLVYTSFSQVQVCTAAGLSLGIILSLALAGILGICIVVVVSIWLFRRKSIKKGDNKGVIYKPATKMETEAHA
The target of experiment [6] is T6, Carbonic anhydrase 1 (Homo sapiens, UniProt P00915). Description: Inhibition of human carbonic anhydrase 1 at >100 uM preincubated for 15 mins by stopped flow CO2 hydrase assay.
Target sequence in this assay (P00915 2-261 limits assumed): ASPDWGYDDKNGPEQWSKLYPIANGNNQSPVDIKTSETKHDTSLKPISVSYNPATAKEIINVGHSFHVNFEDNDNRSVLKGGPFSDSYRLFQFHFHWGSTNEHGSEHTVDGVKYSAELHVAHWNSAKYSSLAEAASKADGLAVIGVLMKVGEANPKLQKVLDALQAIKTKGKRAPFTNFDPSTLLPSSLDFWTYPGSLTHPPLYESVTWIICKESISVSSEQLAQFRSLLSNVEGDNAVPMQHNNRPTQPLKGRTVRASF
Experiment [7] has as its target T7, Carbonic anhydrase 5A, mitochondrial (Homo sapiens, UniProt P35218). As to the kind of experiment: Inhibition of human carbonic anhydrase 5a at >100 uM preincubated for 15 mins by stopped flow CO2 hydrase assay.
The target in experiment [8] is T8, Carbonic anhydrase 7 (Homo sapiens, UniProt P43166). Description: Inhibition of human carbonic anhydrase 7 at >100 uM preincubated for 15 mins by stopped flow CO2 hydrase assay.
T8 sequence (P43166 whole entry): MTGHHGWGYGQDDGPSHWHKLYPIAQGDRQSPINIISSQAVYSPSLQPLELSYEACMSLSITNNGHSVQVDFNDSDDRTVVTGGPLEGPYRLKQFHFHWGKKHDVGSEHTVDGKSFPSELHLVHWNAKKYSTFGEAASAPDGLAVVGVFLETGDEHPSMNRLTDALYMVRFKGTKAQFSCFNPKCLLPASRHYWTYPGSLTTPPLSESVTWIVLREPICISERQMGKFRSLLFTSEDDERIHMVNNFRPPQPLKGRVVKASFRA
For another experiment, the target named is Carbonic anhydrase 13 (Mus musculus, UniProt Q9D6N1). Description: Inhibition of mouse carbonic anhydrase 13 preincubated for 15 mins by stopped flow CO2 hydrase assay.
Sequence of Carbonic anhydrase 13 (Q9D6N1 whole entry): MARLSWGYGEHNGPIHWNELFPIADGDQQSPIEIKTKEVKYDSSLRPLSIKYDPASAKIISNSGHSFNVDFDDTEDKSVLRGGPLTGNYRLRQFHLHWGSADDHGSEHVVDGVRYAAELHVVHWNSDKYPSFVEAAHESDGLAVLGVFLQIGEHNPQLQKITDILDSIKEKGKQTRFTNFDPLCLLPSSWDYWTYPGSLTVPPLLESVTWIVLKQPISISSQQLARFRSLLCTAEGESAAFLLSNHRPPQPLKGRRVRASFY
Experiment [9] concerns the target T9, Carbonic anhydrase 2 (Homo sapiens, UniProt P00918). As to the kind of experiment: Inhibition of human carbonic anhydrase 2 at >100 uM preincubated for 15 mins by stopped flow CO2 hydrase assay.
Experiment [10] has as its target T10, Carbonic anhydrase 5B, mitochondrial (Homo sapiens, UniProt Q9Y2D0). Description: Inhibition of human carbonic anhydrase 5b at >100 uM preincubated for 15 mins by stopped flow CO2 hydrase assay.
The target in experiment [11] is Carbonic anhydrase 6 (Homo sapiens) (UniProt P23280). Description: Inhibition of human carbonic anhydrase 6 at >100 uM preincubated for 15 mins by stopped flow CO2 hydrase assay.
Sequence of Carbonic anhydrase 6 (Homo sapiens) (P23280 whole entry): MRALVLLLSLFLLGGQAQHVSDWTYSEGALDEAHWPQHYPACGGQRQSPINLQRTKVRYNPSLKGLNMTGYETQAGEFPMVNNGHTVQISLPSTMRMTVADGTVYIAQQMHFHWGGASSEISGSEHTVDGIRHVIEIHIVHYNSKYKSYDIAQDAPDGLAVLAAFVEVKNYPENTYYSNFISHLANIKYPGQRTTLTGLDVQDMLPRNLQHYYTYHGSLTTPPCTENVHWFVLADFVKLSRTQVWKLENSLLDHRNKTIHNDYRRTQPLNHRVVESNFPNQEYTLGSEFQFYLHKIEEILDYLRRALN
Experiment [12] concerns the target T5, Carbonic anhydrase 12. Description: Inhibition of human carbonic anhydrase 12 preincubated for 15 mins by stopped flow CO2 hydrase assay.
Experiment [13] deals with T4, Carbonic anhydrase 9. As to the kind of experiment: Inhibition of human carbonic anhydrase 9 preincubated for 15 mins by stopped flow CO2 hydrase assay.
The target of experiment [14] is T7, Carbonic anhydrase 5A, mitochondrial. As to the kind of experiment: Inhibition of human carbonic anhydrase 5a preincubated for 15 mins by stopped flow CO2 hydrase assay.
The target of experiment [15] is T3, Carbonic anhydrase 14. Description: Inhibition of human carbonic anhydrase 14 preincubated for 15 mins by stopped flow CO2 hydrase assay.
Experiment [16] concerns the target T6, Carbonic anhydrase 1. As to the kind of experiment: Inhibition of human carbonic anhydrase 1 preincubated for 15 mins by stopped flow CO2 hydrase assay.
Target sequence in this assay (P00915 whole entry): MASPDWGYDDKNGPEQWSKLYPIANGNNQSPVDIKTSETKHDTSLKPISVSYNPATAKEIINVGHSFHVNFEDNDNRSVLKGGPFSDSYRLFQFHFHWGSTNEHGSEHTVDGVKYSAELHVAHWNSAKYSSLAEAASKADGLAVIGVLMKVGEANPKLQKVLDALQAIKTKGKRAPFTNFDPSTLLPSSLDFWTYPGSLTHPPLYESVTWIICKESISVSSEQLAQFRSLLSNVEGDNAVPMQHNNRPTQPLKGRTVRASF
Experiment [17] addresses T1, Carbonic anhydrase 3. Description: Inhibition of human carbonic anhydrase 3 at >100 uM preincubated for 15 mins by stopped flow CO2 hydrase assay.
Experiment [18] concerns the target T10, Carbonic anhydrase 5B, mitochondrial. As to the kind of experiment: Inhibition of human carbonic anhydrase 5b preincubated for 15 mins by stopped flow CO2 hydrase assay.
Experiment [19] concerns the target T2, Carbonic anhydrase 4. As to the kind of experiment: Inhibition of human carbonic anhydrase 4 preincubated for 15 mins by stopped flow CO2 hydrase assay.
Experiment [20] addresses T9, Carbonic anhydrase 2. As to the kind of experiment: Inhibition of human carbonic anhydrase 2 preincubated for 15 mins by stopped flow CO2 hydrase assay.
Experiment [21] deals with T8, Carbonic anhydrase 7. Description: Inhibition of human carbonic anhydrase 7 preincubated for 15 mins by stopped flow CO2 hydrase assay.

The source made the active and inactive calls. The rule behind the calls is not given here.

T10 sequence (Q9Y2D0 whole entry): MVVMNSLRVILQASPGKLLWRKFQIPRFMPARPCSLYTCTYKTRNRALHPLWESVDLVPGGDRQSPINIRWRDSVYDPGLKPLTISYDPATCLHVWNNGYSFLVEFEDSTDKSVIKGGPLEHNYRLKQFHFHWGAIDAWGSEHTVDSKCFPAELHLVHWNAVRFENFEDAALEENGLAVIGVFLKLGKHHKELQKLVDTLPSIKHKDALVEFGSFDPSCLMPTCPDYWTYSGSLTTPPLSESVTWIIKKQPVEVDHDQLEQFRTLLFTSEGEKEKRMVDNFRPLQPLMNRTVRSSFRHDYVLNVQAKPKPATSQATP
T7 sequence (P35218 whole entry): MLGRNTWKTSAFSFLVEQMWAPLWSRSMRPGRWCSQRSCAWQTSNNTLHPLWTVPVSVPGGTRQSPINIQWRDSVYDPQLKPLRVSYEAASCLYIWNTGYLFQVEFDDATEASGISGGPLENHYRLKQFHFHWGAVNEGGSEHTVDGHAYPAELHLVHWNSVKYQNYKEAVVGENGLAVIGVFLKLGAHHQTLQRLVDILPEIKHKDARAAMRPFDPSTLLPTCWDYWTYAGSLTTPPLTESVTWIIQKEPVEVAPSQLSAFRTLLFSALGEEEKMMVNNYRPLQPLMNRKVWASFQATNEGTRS

With `O=C1C[C@H]2C[C@H](C[C@H](CCc3ccc(O)cc3O)O2)O1`, the Ki was determined as 5.13 µM on Carbonic anhydrase 3 [1] and 0.34 µM at Carbonic anhydrase 13. In addition, the inhibition entry (at Carbonic anhydrase 4 [2]; on Carbonic anhydrase 14 [3]; at Carbonic anhydrase 9 [4]; on Carbonic anhydrase 12 [5]; at Carbonic anhydrase 1 [6]; in experiment [7]) was “inactive” throughout. Also, the inhibition result (at Carbonic anhydrase 7 [8]; at Carbonic anhydrase 2 [9]; in experiment [10]; in experiment [11]) was “inactive” throughout.

Regarding `O=C1C=CC[C@H](C[C@@H](O)CCc2ccc(O)cc2O)O1`, the Ki at Carbonic anhydrase 12 [12] was 24.5 µM; at Carbonic anhydrase 9 [13] it was 32.6 µM; at Carbonic anhydrase 13, 8.13 µM; in [14], 21.6 µM; at Carbonic anhydrase 14 [15], 7.24 µM; at Carbonic anhydrase 1 [16] it was 0.38 µM. For the same compound, the Ki in experiment [18] turned out to be 13.7 µM; on Carbonic anhydrase 4 [19] it was 4.12 µM. The inhibition entry (on Carbonic anhydrase 7 [8]; on Carbonic anhydrase 3 [17]; on Carbonic anhydrase 2 [9]; in [11]) was “inactive” throughout.

`O=C1C=CC[C@H](C[C@@H](O)CCc2cc(Br)c(O)cc2Br)O1`: the inhibitory constant (Ki) at Carbonic anhydrase 12 [12] was 10.8 µM; at Carbonic anhydrase 9 [13], 15.7 µM; at Carbonic anhydrase 13, 7.89 µM; in experiment [14] it was 8.55 µM; at Carbonic anhydrase 14 [15], 12.5 µM; at Carbonic anhydrase 1 [16], 0.76 µM. The Ki in [18] was found to be 6.32 µM; at Carbonic anhydrase 2 [20], 21.8 µM; on Carbonic anhydrase 4 [19], 13.7 µM. The inhibition result (on Carbonic anhydrase 7 [8]; at Carbonic anhydrase 3 [17]; in experiment [11]) was “inactive” throughout.

With `O=C1C=CC[C@H](C[C@@H](O)CCc2ccc(O)cc2)O1`, the Ki at Carbonic anhydrase 3 [1] is 10.3 µM; on Carbonic anhydrase 13, 9.27 µM; at Carbonic anhydrase 14 [15], 9.34 µM; on Carbonic anhydrase 1 [16] it was 5.48 µM; at Carbonic anhydrase 4 [19], 9.61 µM. The inhibition result (on Carbonic anhydrase 9 [4]; on Carbonic anhydrase 12 [5]; in [7]; on Carbonic anhydrase 7 [8]; at Carbonic anhydrase 2 [9]; in experiment [10]) was “inactive” in each case. Also, the inhibition result in experiment [11] is “inactive”.

Consider `O=C1C[C@H]2C[C@H](C[C@H](CCc3ccc(O)cc3)O2)O1`, for which the values for the inhibition constant Ki at Carbonic anhydrase 3 [1] and on Carbonic anhydrase 13 were 10.8 µM and 0.91 µM, respectively. For the same compound, the inhibition entry (on Carbonic anhydrase 4 [2]; at Carbonic anhydrase 14 [3]; at Carbonic anhydrase 9 [4]; at Carbonic anhydrase 12 [5]; on Carbonic anhydrase 1 [6]; in experiment [7]) was “inactive” throughout. Besides, the inhibition entry (on Carbonic anhydrase 7 [8]; on Carbonic anhydrase 2 [9]; in experiment [10]; in experiment [11]) was “inactive” in each case.

As to `O=C1C=CC[C@H](C[C@H](F)CCc2ccc(O)cc2)O1`, the inhibitory constant (Ki) at Carbonic anhydrase 7 [21] was 24.9 µM; on Carbonic anhydrase 12 [12], 1.48 µM; on Carbonic anhydrase 9 [13], 3.57 µM; on Carbonic anhydrase 13, 0.96 µM; in experiment [14], 7.13 µM; on Carbonic anhydrase 14 [15] it was 2.44 µM. Moreover, the Ki was found to be 0.13 µM on Carbonic anhydrase 1 [16], 1.36 µM in experiment [18], 36.9 µM at Carbonic anhydrase 2 [20] and 5.36 µM on Carbonic anhydrase 4 [19]. The inhibition entry (on Carbonic anhydrase 3 [17]; in experiment [11]) was “inactive” in each case.

A word on the Ki: it is the dissociation constant of the complex between target and ligand, obtained from inhibition or displacement. A high value points to lower affinity.
